From the C3SDB collision cross section collection

Details: instrument: DT, stepped-field

| SMILES | collision cross section (N2) ([M+Na]+) [Å²] | collision cross section (N2) ([M+H]+) [Å²] |
| --- | --- | --- |
| OC[C@H]1O[C@@H](O[C@H]2[C@H](O)[C@@H](O)[C@H](O[C@H]3[C@H](O)[C@@H](O)[C@H](O[C@H]4[C@H](O)[C@@H](O)[C@H](O[C@H]5[C@H](O)[C@@H](O)[C@H](O[C@H]6[C@H](O)[C@@H](O)[C@H](O)O[C@@H]6CO)O[C@@H]5CO)O[C@@H]4CO)O[C@@H]3CO)O[C@@H]2CO)[C@H](O)[C@@H](O)[C@@H]1O [Cellohexaose] | 283.13 | – |
| Cc1ccccc1C(=O)NCC(=O)O [2-Methylhippuric Acid] | 156.6 | – |
| C[C@@H]1OC(O)[C@@H](O)[C@H](O)[C@@H]1O (stereo partly drawn) [6-Deoxy-L-galactose] | 147.32 | – |
| N[C@@H](Cn1ccc(=O)c(O)c1)C(=O)O [L-Mimosine] | – | 143.47 |
| N[C@@H](Cc1c[nH]c2ccc(O)cc12)C(=O)O [5-Hydroxy-L-Tryptophan] | 156.47 | 157.88 |
| CN(C)c1nc(=O)n(C2CCCCC2)c(=O)n1C [Hexazinone] | 179.49 | 163.17 |
| CCCCCCCC/C=C\CCCCCCCC(=O)OC(CC(=O)[O-])C[N+](C)(C)C (centres undefined) [Oleoylcarnitine] | 228.6 | 218.73 |
| CC(C)=CC(=O)SCCNC(=O)CCNC(=O)C(O)C(C)(C)COP(=O)(O)OP(=O)(O)OC[C@H]1O[C@@H](n2cnc3c(N)ncnc32)[C@H](O)[C@@H]1OP(=O)(O)O (some centres undefined) [3-Methylcrotonyl-CoA] | – | 180.03 |
| C=CC(C)(O)CCC=C(C)C (centres undefined) [Linalool] | 140.55 | – |
| CC(=O)N[C@H]1[C@H](O[C@H]2[C@@H](O)[C@@H](CO)O[C@@H](O[C@H]3[C@H](O)[C@@H](O)C(O)O[C@@H]3CO)[C@@H]2O)O[C@H](CO)[C@@H](O)[C@@H]1O[C@@H]1O[C@H](CO)[C@H](O)[C@H](O)[C@H]1O (some centres undefined) [Lacto-N-Tetraose] | 239.18 | – |
| C[C@@](O)(CCO)CC(=O)O [Mevalonic Acid] | 137.7 | – |
| CS(=N)(=O)CC[C@H](N)C(=O)O (stereo partly drawn) [L-Methionine sulfoximine] | 143.1 | 139.3 |
| c1ccc2ccccc2c1 [Naphthalene] | – | 120.28 |
| CCCCC[C@H](O)/C=C/[C@H]1CC2CC(C2)[C@@H]1C/C=C\CCCC(=O)O [Carbocyclic Thromboxane A2] | 203.6 | – |
| O=C/C=C/c1ccccc1 [Cinnamaldehyde] | – | 134.25 |
| NC(=O)c1ccc[n+]([C@@H]2O[C@H](COP(=O)(O)OP(=O)(O)OC[C@H]3O[C@@H](n4cnc5c(N)ncnc54)[C@H](O)[C@@H]3O)[C@@H](O)[C@H]2O)c1 [Nicotinamide Adenine Dinucleotide (NAD+)] | – | 241.93 |
| O=c1[nH]c(=O)c2[nH]c(=O)[nH]c2[nH]1 [Uric Acid] | 143.5 | 131 |
| CCCCCCCCCCCCC=CC[C@@H](O)[C@H](COP(=O)([O-])OCC[N+](C)(C)C)NC(=O)CCCCCCCCCCCCCCCC [SM(d18:1/17:0)] | 291.89 | 290.12 |
| CN(C)C(=O)Nc1ccc(Cl)c(Cl)c1 [Diuron] | 162.7 | 153.32 |
| CCCCC/C=C\C=C\C(O)CCCCCCCC(=O)O (centres undefined) [9-HODE] | 189.14 | – |
| CCCCCC1OC1C/C=C\C/C=C\C/C=C\CCCC(=O)O (centres undefined) [14(15)-EET] | 187.07 | 182.43 |
